*1 amine or outer side, *2 acyl side, *3 side chain or, on linkers, in order; H or OH if unused. Where a SMILES comes first, the peptide text is derived from it. Bridges are numbered along the chain shown (N, C = ends). [ ]: non-standard residue; d: D form. TATA = O=C(CC[*:1])N1CN(C(=O)CC[*:2])CN(C(=O)CC[*:3])C1; hArg = N=C(N)NCCCC[C@H](N)C(=O)O; βAla = NCCC(=O)O; Sar = CNCC(=O)O

In US12459974B2, “Bicyclic peptide ligands specific for Nectin-4” (priority 2018, dated 2025) one finds Ki data, which are given here for 11 molecules.

This assay concerns the target T1, human Nectin-4 (Homo sapiens, UniProt Q96NY8).
T1 sequence (Q96NY8 32-510): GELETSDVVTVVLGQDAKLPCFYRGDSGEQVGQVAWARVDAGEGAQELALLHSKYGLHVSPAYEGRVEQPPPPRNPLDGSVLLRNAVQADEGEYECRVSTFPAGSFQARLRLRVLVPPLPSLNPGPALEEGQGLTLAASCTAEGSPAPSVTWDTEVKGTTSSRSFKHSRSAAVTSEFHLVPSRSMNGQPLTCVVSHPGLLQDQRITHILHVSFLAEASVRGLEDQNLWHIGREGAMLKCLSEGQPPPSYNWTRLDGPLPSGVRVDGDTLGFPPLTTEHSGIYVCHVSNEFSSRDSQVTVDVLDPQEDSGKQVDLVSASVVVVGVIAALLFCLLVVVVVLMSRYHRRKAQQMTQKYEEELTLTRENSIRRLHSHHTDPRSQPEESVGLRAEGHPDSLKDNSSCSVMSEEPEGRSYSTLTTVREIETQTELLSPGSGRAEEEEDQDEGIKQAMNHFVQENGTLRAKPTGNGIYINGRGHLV
The experiment in a line: Nectin-4 competition binding assay (fluorescence polarisation). The settings on record: competition with fluorescent peptide SEQ ID NO: 217; read-out: Ki. The procedure:
Peptides were diluted to an appropriate concentration in assay buffer as described in the direct binding assay with a maximum of 5% DMSO, then serially diluted 1 in 2. Five μL of diluted peptide was added to the plate followed by 10 μL of human Nectin-4, then 10 μL fluorescent peptide added. Measurements were conducted as for the direct binding assay, however the gain was determined prior to the first measurement. Data analysis was in Systat Sigmaplot version 12.0 where the mP values were fit to a user defined cubic equation to generate a Ki value: • f=ymin+(ymax−ymin)/Lig*((Lig*((2*((Klig+Kcomp+Lig+Comp-Prot*c)^2-3*(Kcomp*(Lig-Prot*c)+Klig*(Comp-Prot*c)+Klig*Kcomp))^0.5*COS(ARCCOS((−2*(Klig+Kcomp+Lig+Comp-Prot*c)^3+9*(Klig+Kcomp+Lig+Comp-Prot*c)*(Kcomp*(Lig-Prot*c)+Klig*(Comp-Prot*c)+Klig*Kcomp)−27*(−1*Klig*Kcomp*Prot*c)/(2*((((Klig+Kcomp+Lig+Comp-Prot*c)^2−3*(Kcomp*(Lig-Prot*c)+Klig*(Comp-Prot*c)+Klig*Kcomp))^3)^0.5)))/3))−(Klig+Kcomp+Lig+Comp-Prot*c)))/((3*Klig)+((2*((Klig+Kcomp+Lig+Comp-Prot*c)^2−3*(Kcomp*(Lig-Prot*c)+Klig*(Comp-Prot*c)+Klig*Kcomp))^0.5*COS (ARCCOS ((−2*(Klig+Kcomp+Lig+Comp-Prot*c)^3+9*(Klig+Kcomp+Lig+Comp-Prot*c)*(Kcomp*(Lig-Prot*c)+Klig*(Comp-Prot*c)+Klig*Kcomp)-27*(−1*Klig*Kcomp*Prot*c))/(2*((((Klig+Kcomp+Lig+Comp-Prot*c)^2-3*(Kcomp*(Lig-Prot*c)+Klig*(Comp-Prot+c)+Klig*Kcomp))^3)^0.5))/3)−(Klig+Kcomp+Lig+Comp-Prot*c)))).
“Lig”, “KLig” and “Prot” were all defined values relating to: fluorescent peptide concentration, the Kd of the fluorescent peptide and Nectin concentration respectively.
In general terms: Polarisation of emitted light reports the rotation of a fluorescent probe.
Take `CC[C@H](C)[C@H]1C(=O)N[C@@H](Cc2c[nH]c3ccccc23)C(=O)N[C@H](C(N)=O)CSCCC(=O)N2CN3CN(C2)C(=O)CCSC[C@H](NC(C)=O)C(=O)N2CCC[C@H]2C(=O)N[C@@H](Cc2ccccc2)C(=O)N[C@H](CC(=O)O)C(=O)N[C@@H](CSCCC3=O)C(=O)N[C@@H](CCSC)C(=O)N[C@@H](CCCCNC(=N)N)C(=O)N[C@@H](CC(N)=O)C(=O)N[C@@H](Cc2c[nH]c3ccccc23)C(=O)N[C@@H](CO)C(=O)N[C@@H]([C@@H](C)O)C(=O)N2CCC[C@H]2C(=O)N1C` [BCY8158, Ac-(SEQ ID NO: 176)]: the inhibitory constant (Ki) (in general, a dissociation constant, usually derived from enzyme kinetics or from competition with a known ligand) was 177 nM. In the case of `CC[C@H](C)[C@@H]1NC(=O)[C@@H]2CCCN2C(=O)[C@H](Cc2c[nH]c3ccccc23)NC(=O)[C@H](CO)NC(=O)[C@H](Cc2c[nH]c3ccccc23)NC(=O)[C@H](CC(N)=O)NC(=O)[C@H](CC(=O)O)NC(=O)[C@H](CCSC)NC(=O)[C@@H]2CSCCC(=O)N3CN(CN(C3)C(=O)CCSC[C@H](NC(C)=O)C(=O)N3CCC[C@H]3C(=O)N[C@@H](Cc3ccccc3)C(=O)NCC(=O)N2)C(=O)CCSC[C@@H](C(N)=O)NC(=O)[C@H](Cc2c[nH]c3ccccc23)NC1=O` [BCY7659, Ac-(SEQ ID NO: 13)] (Ac-CPFGCMDNWSWPIWC-NH2; linker 1-5-15 via TATA; C-terminus assumed) it was 77.9 nM; in that of `CSCC[C@@H]1NC(=O)[C@@H]2CSCCC(=O)N3CN(CN(C3)C(=O)CCSC[C@H](NC(C)=O)C(=O)N3CCC[C@H]3C(=O)N[C@@H](Cc3cccc4ccccc34)C(=O)N[C@H](CC(=O)O)C(=O)N2)C(=O)CCSC[C@@H](C(N)=O)NC(=O)[C@H](Cc2c[nH]c3ccccc23)NC(=O)[C@@H]2C[C@@H](O)CN2C(=O)[C@@H]2CCCN2C(=O)[C@H]([C@@H](C)O)NC(=O)[C@H](CO)NC(=O)[C@H](Cc2c[nH]c3ccccc23)NC(=O)[C@H](CC(=O)O)NC(=O)[C@H](CCNC(=N)N)NC1=O` [BCY8181, Ac-(SEQ ID NO: 186)], 3.5 nM; in that of `CC[C@H](C)[C@@H]1NC(=O)[C@@H]2CCCN2C(=O)[C@H](Cc2c[nH]c3ccccc23)NC(=O)[C@H](CO)NC(=O)[C@H](Cc2c[nH]c3ccccc23)NC(=O)[C@H](CC(N)=O)NC(=O)[C@H](CCCCN)NC(=O)[C@H](CCSC)NC(=O)[C@@H]2CSCCC(=O)N3CN(CN(C3)C(=O)CCSC[C@H](NC(=O)[C@H](C)N)C(=O)N3CCC[C@H]3C(=O)N[C@@H](Cc3ccccc3)C(=O)NCC(=O)N2)C(=O)CCSC[C@@H](C(=O)N[C@H](C(=O)N[C@@H](CC(N)=O)C(=O)N[C@@H](C)C(N)=O)[C@@H](C)O)NC(=O)[C@H](Cc2c[nH]c3ccccc23)NC1=O` [BCY7348, A-(SEQ ID NO: 1)-TNA], 20.6 nM.

`CC[C@H](C)[C@@H]1NC(=O)[C@@H]2CCCN2C(=O)[C@H](Cc2c[nH]c3ccccc23)NC(=O)[C@H](CO)NC(=O)[C@H](Cc2c[nH]c3ccccc23)NC(=O)[C@H](CC(N)=O)NC(=O)[C@H](CCCCNC(=N)N)NC(=O)[C@H](CCSC)NC(=O)[C@@H]2CSCCC(=O)N3CN(CN(C3)C(=O)CCSC[C@H](NC(=O)CN(C)C(=O)CN(C)C(=O)CN(C)C(=O)CN(C)C(=O)CN(C)C(=O)CCNC(C)=O)C(=O)N3CCC[C@H]3C(=O)N[C@@H](Cc3ccccc3)C(=O)N[C@H](CC(=O)O)C(=O)N2)C(=O)CCSC[C@@H](C(N)=O)NC(=O)[C@H](Cc2c[nH]c3ccccc23)NC1=O` [BCY7558, Ac-[B-Ala][Sar5]-(SEQ ID NO: 76)] (Ac-[βAla][Sar][Sar][Sar][Sar][Sar]CPF[dD]CM[hArg]NWSWPIWC-NH2; linker 7-11-21 via TATA): the Ki worked out at 21.9 nM. In the case of `CC[C@H](C)[C@@H]1NC(=O)[C@@H]2CCCN2C(=O)[C@H](Cc2ccccc2)NC(=O)[C@H](CO)NC(=O)[C@H](Cc2c[nH]c3ccccc23)NC(=O)[C@H](CC(N)=O)NC(=O)[C@H](CCCCN)NC(=O)[C@H](CCSC)NC(=O)[C@@H]2CSCCC(=O)N3CN(CN(C3)C(=O)CCSC[C@H](NC(C)=O)C(=O)N3CCC[C@H]3C(=O)N[C@@H](Cc3ccccc3)C(=O)NCC(=O)N2)C(=O)CCSC[C@@H](C(N)=O)NC(=O)[C@H](Cc2c[nH]c3ccccc23)NC1=O` [BCY7589, Ac-(SEQ ID NO: 84)] (Ac-CPFGCMKNWSFPIWC-NH2; linker 1-5-15 via TATA; C-terminus assumed) it was 34.5 nM; in that of `CC[C@H](C)[C@@H]1NC(=O)[C@@H]2CCCN2C(=O)[C@H](Cc2c[nH]c3ccccc23)NC(=O)[C@H](CO)NC(=O)[C@H](Cc2c[nH]c3ccccc23)NC(=O)[C@H](CC(N)=O)NC(=O)[C@H](CCCCN)NC(=O)[C@H](CCSC)NC(=O)[C@@H]2CSCCC(=O)N3CN(CN(C3)C(=O)CCSC[C@H](NC(=O)[C@@H](CC(=O)O)NC(C)=O)C(=O)N3CCC[C@H]3C(=O)N[C@@H](Cc3ccccc3)C(=O)NCC(=O)N2)C(=O)CCSC[C@@H](C(N)=O)NC(=O)[C@H](Cc2c[nH]c3ccccc23)NC1=O` [BCY7606, Ac-[dD]-(SEQ ID NO: 1)] (Ac-[dD]CPFGCMKNWSWPIWC-NH2; linker 2-6-16 via TATA), 34 nM; in that of `CC[C@H](C)[C@@H]1NC(=O)[C@@H]2CCCN2C(=O)[C@H](Cc2c[nH]c3ccccc23)NC(=O)[C@H](C)NC(=O)[C@H](Cc2c[nH]c3ccccc23)NC(=O)[C@H](CC(N)=O)NC(=O)[C@H](CCCCN)NC(=O)[C@H](CCSC)NC(=O)[C@@H]2CSCCC(=O)N3CN(CN(C3)C(=O)CCSC[C@H](NC(=O)[C@H](C)N)C(=O)N3CCC[C@H]3C(=O)N[C@@H](Cc3ccccc3)C(=O)NCC(=O)N2)C(=O)CCSC[C@@H](C(=O)N[C@H](C(=O)N[C@@H](CC(N)=O)C(=O)N[C@@H](CCCCN)C(N)=O)[C@@H](C)O)NC(=O)[C@H](Cc2c[nH]c3ccccc23)NC1=O` [BCY7424, A-(SEQ ID NO: 30)-TNK] (H-ACPFGCMKNWAWPIWCTNK-NH2; linker 2-6-16 via TATA; N-terminus and C-terminus assumed), 562 nM. With `CC[C@H](C)[C@@H]1NC(=O)[C@@H]2CCCN2C(=O)[C@H]([C@@H](C)O)NC(=O)[C@H](CO)NC(=O)[C@H](Cc2c[nH]c3ccccc23)NC(=O)[C@H](CC(N)=O)NC(=O)[C@H](CCCCNC(=N)N)NC(=O)[C@H](CCSC)NC(=O)[C@@H]2CSCCC(=O)N3CN(CN(C3)C(=O)CCSC[C@H](NC(=O)[C@H](CC(=O)O)NC(=O)[C@H](CC(=O)O)NC(=O)[C@H](CC(=O)O)NC(C)=O)C(=O)N3CCC[C@H]3C(=O)N[C@@H](Cc3ccccc3)C(=O)N[C@H](CC(=O)O)C(=O)N2)C(=O)CCSC[C@@H](C(N)=O)NC(=O)[C@H](Cc2c[nH]c3ccccc23)NC1=O` [BCY8028, Ac-DDD-(SEQ ID NO: 115)], the Ki was 61.9 nM. As for `CC[C@H](C)[C@@H]1NC(=O)[C@H](CCCNC(=N)N)NC(=O)[C@H](CC(N)=O)NC(=O)[C@@H]2CSCCC(=O)N3CN(CN(C3)C(=O)CCSC[C@H](NC(=O)[C@H](Cc3c[nH]c4ccccc34)NC(=O)[C@H](CCCCN)NC(=O)[C@H](CCC(N)=O)NC(C)=O)C(=O)N[C@@H](C)C(=O)N3CCC[C@H]3C(=O)N[C@@H](CC(C)C)C(=O)N[C@@H](C)C(=O)N[C@@H](CC(=O)O)C(=O)N[C@@H](Cc3ccc(O)cc3)C(=O)N[C@@H](Cc3c[nH]c4ccccc34)C(=O)N2)C(=O)CCSC[C@@H](C(N)=O)NC1=O` [BCY7627, Ac-QKW-(SEQ ID NO: 104)] (Ac-QKWCAPLADYWCNRIC-NH2; linker 4-12-16 via TATA; C-terminus assumed), the Ki is 101 nM. On to `CC[C@H](C)[C@@H]1NC(=O)[C@@H]2CCCN2C(=O)[C@H]([C@@H](C)O)NC(=O)[C@H](CO)NC(=O)[C@H](Cc2c[nH]c3ccccc23)NC(=O)[C@H](CC(N)=O)NC(=O)[C@H](CCCCNC(=N)N)NC(=O)[C@H](CC(C)C)NC(=O)[C@@H]2CSCCC(=O)N3CN(CN(C3)C(=O)CCSC[C@H](NC(C)=O)C(=O)N3CCC[C@H]3C(=O)N[C@@H](Cc3ccccc3)C(=O)N[C@H](CC(=O)O)C(=O)N2)C(=O)CCSC[C@@H](C(N)=O)NC(=O)[C@H](Cc2c[nH]c3ccccc23)NC1=O` [BCY8039, Ac-(SEQ ID NO: 161)] (Ac-CPF[dD]CL[hArg]NWSTPIWC-NH2; linker 1-5-15 via TATA; C-terminus assumed), for which the Ki was 21.4 nM.
